Results published in patent US20230257351A1, “SUBSTITUTED N-[…] HAVING P2X4 RECEPTOR ANTAGONISTIC ACTIVITY” (Bayer Aktiengesellschaft, priority 2020, published 2023).

System: neuropathic mechanical allodynia induced by CCI surgery
Experiment: Chronic Constriction Injury (CCI) Neuropathic Pain Model in Rats with Pain Behavior Read Out
Format: in vivo, male Sprague-Dawley rats
Conditions: rat CCI; von Frey; gabapentin 100 mg/kg SID on days 0, 2, 5, 9; all post-dose time points
Procedure: Aim of the study was to test the efficacy of example 68 at ameliorating neuropathic mechanical allodynia. Male Sprague-Dawley rats were subject to chronic constriction injury of the sciatic nerve to induce neuropathic pain. Of those rats, 10 per group were assigned to treatment conditions involving BID drug administration for 10 days and behavioral assessment of mechanical sensitivity for allodynia with von Frey testing (vF). Behavior was assessed pre- and postdosing on Days 0, 2, 5, and 9. Rats were treated with Vehicle or test article BID on days 0 through 9, and rats in the gabapentin treatment group received gabapentin SID on days 0, 2, 5, and 9 in conjunction with behavioral assessment.
As vehicle Solutol/DMSO/WFI (40/10/50) was employed. Application volume for the per oral administration was 10 ml/kg.
Neuropathy was induced in male Sprague-Dawley rats by tying four loose ligatures of chromic gut around the common sciatic nerve in deeply anesthetized rats like described in Bennett, G. J., and Y. K. Xie. “A Peripheral Mononeuropathy in Rat That Produces Disorders of Pain Sensation like Those Seen in Man.” Pain 33 (1988): 87-107.
Mechanical allodynia was measured using 8 Semmes-Weinstein filaments (Stoelting©; Wood Dale, Ill., USA) with varying stiffness (0.4, 0.6, 1.0, 2.0, 4.0, 6.0, 8.0, and 15 g) according to the up-down method1. Animals were placed in individual acrylic chambers on a metal mesh surface and allowed to acclimate to their surroundings for a minimum of 15 minutes before testing. Each filament was presented perpendicular to the plantar surface with sufficient force to cause slight buckling against the paw and held for approximately 6 seconds or until a positive response is noted (paw sharply withdrawn).
Testing was initiated with the 2.0 g filament. In the absence of a paw withdrawal response, the next stronger stimulus was presented. In the event of paw withdrawal, the next weaker stimulus was used. […]
The 50% response threshold is calculated using the formula: […]

NCC1(CC(=O)O)CCCCC1 [Gabapentin, gabapentin, reference compound] was tested, and the paw withdrawal thresholds was “significantly increased paw withdrawal thresholds”.
